What was measured:
[1] = test system: human cervical adenocarcinoma cell line (HeLa); assay: MTT cell viability assay, HeLa; format: cell-based; conditions: 48 h, 5–50 µM; for IC50: Homo sapiens, HeLa, read-out: HeLa Cell Line IC50 ± SD
Description: (§1) Firstly, the antiproliferative activity of lead compound 1, 2 and 5–9 against selected human cell lines was assessed. No effect on human PHA (Phytohaemagglutinin)-stimulated proliferating non-tumor human cell line (PMBC) has been detected for compound 1 tested at different concentrations (10–50 μM) after 72 h of exposure. In more detail, all the synthesized compounds have been tested on human melanoma cancer A375 and HeLa cancer cell lines, which are known to overexpress BAG3 protein, by an MTT cell viability assay, using different concentrations (5–50 μM). The IC50 values have been calculated after 48 h of treatment with test compounds (Table 2).
(§2) Cell lines of human cervical carcinoma (HeLa) and human malignant melanoma (A375) were cultured in Dulbecco’s modified Eagle’s medium containing 10% fetal bovine serum, supplemented with 100 U/mL each of penicillin and streptomycin, and 2 mM/L glutamine and were grown at 37 °C under 5% CO2 air humidified atmosphere.
(§3) Cell viability was evaluated using a colorimetric assay based on MTT ((3-(4,5-dimethylthiazol-2-yl)-2,5-diphenyltetrazolium bromide)) assay. Cells were grown in 96-well tissue culture plates (3,5 × 10^3 cells/well) and after 24 h, were treated with different concentrations of 1, 2 and 5–9 (50, 25, 10, and 5 µM) and incubation was performed for 48 h at 37 °C in an atmosphere containing 5% CO2. At the end of treatment, the plates were centrifuged at 1200 rpm for 5 min, the medium was removed and 100 μL of MTT (1 mg/mL) were added to each well, and cells were incubated at 37 °C for the time necessary to allow the formation of purple formazan precipitate. The solution was then removed from each well, and the formazan crystals within the cells were dissolved with 100 μL of DMSO [31]. The optical density (OD) of each well was measured with a microplate spectrophotometer (Multiskan Spectrum Thermo Electron Corporation reader) (Thermo Fisher Scientific, Rome, Italy) equipped with a 620-nm filter. Cell mortality was calculated as: % mortality = 100 − [100 × (OD treated/OD control)] [32].

[2] = test system: human melanoma cell line (A375); assay: MTT cell viability assay, A375; format: cell-based; conditions: 5–50 µM; for IC50: Homo sapiens, A-375, 48 h, read-out: A375 Cell Line IC50 ± SD; for A375 Cell Line IC50 ± SD: 48 h
Description: as §1, §2, §3

[3] = target: Human recombinant BAG3 (rBAG3) protein full length (Homo sapiens, UniProt O95817); assay: SPR assay on recombinant full-length BAG3; conditions: for rBAG3 KD ± SD: SPR, full-length protein, 25 °C, n.b. = no binding
Sequence of Human recombinant BAG3 (rBAG3) protein full length (O95817 whole entry): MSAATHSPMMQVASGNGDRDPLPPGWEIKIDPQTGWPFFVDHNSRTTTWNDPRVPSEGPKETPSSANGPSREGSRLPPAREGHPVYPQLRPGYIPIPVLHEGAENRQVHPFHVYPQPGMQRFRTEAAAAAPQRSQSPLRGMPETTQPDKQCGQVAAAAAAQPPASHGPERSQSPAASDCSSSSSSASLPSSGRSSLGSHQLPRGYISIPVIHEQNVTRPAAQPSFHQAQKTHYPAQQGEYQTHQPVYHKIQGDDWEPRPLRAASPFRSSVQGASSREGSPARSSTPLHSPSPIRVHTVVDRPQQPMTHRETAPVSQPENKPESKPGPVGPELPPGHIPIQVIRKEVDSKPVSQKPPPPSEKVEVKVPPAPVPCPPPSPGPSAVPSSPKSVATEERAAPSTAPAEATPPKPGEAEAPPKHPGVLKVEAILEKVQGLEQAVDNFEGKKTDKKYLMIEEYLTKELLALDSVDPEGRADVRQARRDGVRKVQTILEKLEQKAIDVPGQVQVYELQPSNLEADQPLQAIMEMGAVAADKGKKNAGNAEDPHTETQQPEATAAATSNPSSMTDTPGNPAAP
Description: (§9) A surface plasmon resonance (SPR) assay [18], using a recombinant BAG3 protein, was performed and, to explore the potential selectivity of our potential binders, the affinity for BAG4—the most closely BAG3 related protein—was also evaluated. Moreover, the binding affinity towards the BAG3BD domain was also assessed.
(§10) The SPR analysis were performed on Biacore 3000^TM equipped with a research-grade CM5 sensor chip (GE Healthcare^TM, Milan, Italy). Human recombinant BAG3 (rBAG3) protein was purchased from MyBioSource© (San Diego, CA, USA), BAG3 domain (rBAG3BD) was purchased from ARETA International S.r.l. […] The proteins were coupled to the surface of a CM5 sensor chip using standard amine-coupling protocols, according to the manufacturer’s instructions. Three separates recombinant rBAG proteins surfaces and one unmodified reference surface were prepared for simultaneous analyses. rBAG proteins (BAG3 and BAG4) and rBAG3BD (100 µg mL^−1 in 10 mM CH3COONa, pH 4.5) were immobilized on the sensor chip surface at a flow rate of 5 µL min^−1 to obtain densities of 5–9 kRU. […] For each molecule, a six-point concentration series was conducted in triplicate (0-0.25-1-10-20-100 µM). SPR (Surface Plasmon Resonance) experiments were performed at 25 °C, using a flow rate of 10 µL min^−1, with 60-s monitoring of association and 300-s monitoring of dissociation. Sensorgram elaborations were performed using the BIAevaluation software (GE Healthcare^TM, Milan, Italy). provided by GE Healthcare^TM. Simple interactions were suitably fitted to a single-site bimolecular interaction model (A + B = AB), yielding a single KD.

[4] = target: T1, human recombinant BAG4 protein (Homo sapiens, UniProt O95429); assay: SPR assay on BAG4 (selectivity); conditions: 25 °C, n.b. = no binding
T1 sequence (O95429 1-457): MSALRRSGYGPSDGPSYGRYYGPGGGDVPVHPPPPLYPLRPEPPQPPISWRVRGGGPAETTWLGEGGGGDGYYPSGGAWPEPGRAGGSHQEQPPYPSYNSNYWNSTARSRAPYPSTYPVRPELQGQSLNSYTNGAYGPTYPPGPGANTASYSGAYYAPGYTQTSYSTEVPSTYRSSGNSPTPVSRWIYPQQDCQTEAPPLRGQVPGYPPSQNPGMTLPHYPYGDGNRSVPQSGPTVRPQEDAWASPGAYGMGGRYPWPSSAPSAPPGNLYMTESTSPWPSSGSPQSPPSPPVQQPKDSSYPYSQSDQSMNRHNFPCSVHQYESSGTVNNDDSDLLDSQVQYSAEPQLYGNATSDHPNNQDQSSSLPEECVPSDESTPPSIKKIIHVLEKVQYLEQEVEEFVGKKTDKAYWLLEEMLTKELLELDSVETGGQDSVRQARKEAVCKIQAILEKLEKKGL
Description: as §9, §10

BAG3 domain (rBAG3BD) = target: T2, BAG3 domain (rBAG3BD) (Homo sapiens, UniProt O95817); assay: SPR assay on isolated BAG3 BAG domain; conditions: for rBAG3BD KD ± SD: SPR, isolated BAG domain, 25 °C, n.b. = no binding
T2 sequence (O95817 421-498 limits assumed): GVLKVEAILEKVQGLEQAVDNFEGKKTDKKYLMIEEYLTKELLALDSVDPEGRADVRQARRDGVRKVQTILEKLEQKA
Description: as §9, §10

HeLa cells = assay: Apoptosis and cell cycle analysis by PI staining and flow cytometry, HeLa; format: cell-based, human; conditions: 5-10-25 μM, 48 h
Description: (§4) The cells were incubated for 48 h with 1 and 6 at concentrations 5-10-25μM.
(§5) The effect of compound 1 and 6 on cell death was analyzed by propidium iodide (PI) (Merck, Darmstadt, Germany) incorporation in permeabilized cells and flow cytometry. Briefly, cells were plated at a density of 2 × 10^4 cells/well in a 24-well plate. After 24 h, 1 and 6 (25-10-5 μM) were added for 48 h. Cells were washed twice with PBS and incubated in 500μL of a solution containing 0.1% Triton X-100, 0.1% sodium citrate, and […] propidium iodide (PI), at 4 °C for 30 min in the dark. The PI-stained cells were subsequently analyzed by flow cytometry by FACSCalibur flow cytometer (Becton Dickinson, Milan, Italy) using CellQuest software (4.0, Becton Dickinson, North Ryde, NSW, Australia). Results are expressed as the percentage of cells in the hypodiploid region. Cellular debris were excluded from the analysis by raising the forward scatter threshold and the DNA content of the nuclei was registered on a logarithmic scale. Cell cycle profiles were evaluated by DNA staining with a PI solution using a flow cytometer. Results from 5000 events per sample were collected, and the relative percentage of the cells in G0/G1, S, G2/M, and sub-G0/G1 phases of the cell cycle was determined using the ModFit LT version 3.3 analysis software (BD Biosciences, North Ryde, NSW, Australia).
Figure 4 Cell cycle analysis: (a) DNA content and (b) hypodiploid nuclei, with propidium iodide staining, were evaluated by flow cytometric assay. HeLa cells were treated with 6 (5-10-25 μM) for 48 h. Results are expressed as mean ± S.E.M. of three independent experiments each performed in duplicate. Data were analyzed by Student’s t-test. * p < 0.05 and ** p < 0.005 vs. non-treated.

caspase 9 = assay: Caspase 9 level by flow cytometry in HeLa cells; format: cell-based, human; conditions: 5-10-25 μM, 48 h
Description: (§6) Furthermore, the expression of caspases, the key mediators of programmed cells death, was examined in HeLa cells after the treatment with compound 6.
(§7) Cells were plated into 12-well plated (2 × 10^4 cells/well) and after 24 h were treated with 6 (50-25-10-5 µM) for 48 h to assess caspase 3 and caspase 9 levels. Cells were collected, washed with PBS, then incubated in fixing buffer (containing 4% formaldehyde, 0.1% NaN3, and 2% FBS in PBS) for 20 min and then permeabilized with fix perm solution (fixing buffer containing 0.1% Triton X) for 30 min. Afterward, anti-caspase 3 or anti-caspase 9 antibodies were added for a further 30 min. Cells were then incubated with anti-rabbit Texas Red antibody as a secondary antibody for 1 h at 4 °C. Cell fluorescence was evaluated using a fluorescence-activated cell sorter (FACSscan; Becton Dickinson, Milan, Italy) and analyzed with the Cell Quest software (4.0, Becton Dickinson, North Ryde, NSW, Australia). Data were shown as a percentage of positive cells.
(§8) Figure 5 (a) Caspase 3 and (b) caspase 9 expressions were detected by flow cytometric analysis. HeLa cells were treated with 6 (5-10-25 μM) for 48 h. Results are expressed as mean ± S.E.M. from at least three independent experiments each performed in duplicate. Data were analyzed by Student’s t-test. *** p < 0.0001 vs. non-treated.

caspase 3 = assay: Caspase 3 level by flow cytometry in HeLa cells; format: cell-based, human; conditions: 5-10-25 μM, 48 h
Description: as §6, §7, §8

BAG3 = BAG3 expression by Western blotting in HeLa cells; format: cell-based, human; conditions: 5-10-25 μM, 48 h
Description: Figure 6 HeLa cells were treated with 6 (5-10-25 μM) for 48 h. BAG3 expression was detected by Western blotting. Tubulin protein expression was used as a loading control. Results are expressed as mean ± S.E.M. from at least three independent experiments each performed in duplicate. Data were analyzed by Student’s t test vs. non-treated.

A375 cells = assay: Apoptosis and cell cycle analysis by PI staining and flow cytometry, A375; format: cell-based, human; conditions: 5-10-25 μM, 48 h
Description: as §4, §5
Figure 3 Cell cycle analysis: (a) DNA content and (b) hypodiploid nuclei, with propidium iodide staining, were evaluated by flow cytometric assay. A375 cells were treated respectively with 1 or 6 (both 5-10-25 μM) for 48 h. Results are expressed as mean ± S.E.M. of three independent experiments, each performed in duplicate. Data were analyzed by Student’s t-test. * p < 0.05 and ** p < 0.005 vs. non-treated.

IC50 [1] [µM] | IC50 [2] [µM] | Kd [3] [µM] | rBAG4 KD ± SD [4] | rBAG3BD KD ± SD (BAG3 domain (rBAG3BD)) | rBAG3 KD ± SD [3] | HeLa Cell Line IC50 ± SD [1] | A375 Cell Line IC50 ± SD [2] | Kd (BAG3 domain (rBAG3BD)) [µM] | Compound | apoptotic response (hypodiploid nuclei), HeLa (HeLa cells) | cell cycle distribution (G2 phase), HeLa (HeLa cells) | caspase 9 levels (caspase 9) | caspase 3 levels (caspase 3) | BAG3 expression (BAG3) | apoptotic response (hypodiploid nuclei), A375 (A375 cells) | cell cycle distribution (G2 phase), A375 (A375 cells)
27.3 ± 1.2 | > 50 | 0.115 ± 0.0014 | n.b. | n.b. | – | – | – | – | COC(=O)CN1C(=O)S/C(=C\c2ccc(O)c(O)c2)C1=O [Compound 2, (Z)-methyl 2-(5-(3,4-dihydroxybenzylidene)-2,4-dioxothiazolidin-3-yl) acetate] | – | – | – | – | – | – | –
– | – | – | – | – | n.b. | – | – | – | CCOC(=O)CN1C(=O)S/C(=C\c2cc(O)cc(O)c2)C1=O [Compound 3, (Z)-ethyl 2-(5-(3,5-dihydroxybenzylidene)-2,4-dioxothiazolidin-3-yl) acetate] | – | – | – | – | – | – | –
– | – | – | – | – | n.b. | – | – | – | COC(=O)CN1C(=O)S/C(=C\c2cc(O)cc(O)c2)C1=O [Compound 4, (Z)-methyl 2-(5-(3,5-dihydroxybenzylidene)-2,4-dioxothiazolidin-3-yl) acetate] | – | – | – | – | – | – | –

Second part, the compound before the results:

Compound | IC50 [1] [µM] | IC50 [2] [µM] | Kd [3] [µM] | rBAG4 KD ± SD [4] | rBAG3BD KD ± SD (BAG3 domain (rBAG3BD)) | rBAG3 KD ± SD [3] | HeLa Cell Line IC50 ± SD [1] | A375 Cell Line IC50 ± SD [2] | Kd (BAG3 domain (rBAG3BD)) [µM] | apoptotic response (hypodiploid nuclei), HeLa (HeLa cells) | cell cycle distribution (G2 phase), HeLa (HeLa cells) | caspase 9 levels (caspase 9) | caspase 3 levels (caspase 3) | BAG3 expression (BAG3) | apoptotic response (hypodiploid nuclei), A375 (A375 cells) | cell cycle distribution (G2 phase), A375 (A375 cells)
O=C(CN1C(=O)S/C(=C\c2cc(O)cc(O)c2)C1=O)N1CCOCC1 [Compound 5, (Z)-5-(3,5-dihydroxybenzylidene)-3-(2-morpholino-2-oxoethyl) thiazolidine-2,4-dione] | 30 ± 1.3 | 25.5 ± 1.1 | – | n.b. | – | – | micromolar range | micromolar range | – | – | – | – | – | – | – | –
CCOC(=O)CN1C(=O)S/C(=C\c2ccc(N(CCO)CCO)cc2)C1=O [Compound 6, (Z)-ethyl 2-(5-(4-(bis(2-hydroxyethyl)amino)benzylidene)-2,4-dioxothiazolidin-3-yl) acetate] | 18.7 ± 0.9 | 19.4 ± 1.2 | 0.0063 ± 0.0003 | n.b. | – | – | micromolar range | micromolar range | 0.0276 ± 0.0019 | significant increase of the apoptotic response in a dose-dependent manner | dose-dependent accumulation in the G2 phase | significant and dose-dependent activation | significant and dose-dependent activation | expression decrease of BAG3 | significant increase of the apoptotic response in a dose-dependent manner | dose-dependent accumulation in the G2 phase
COC(=O)CN1C(=O)S/C(=C\c2ccc(N(CCO)CCO)cc2)C1=O [Compound 7, (Z)-methyl 2-(5-(4-(bis(2-hydroxyethyl)amino)benzylidene)-2,4-dioxothiazolidin-3-yl) acetate] | 49.4 ± 1.4 | > 50 | 0.0531 ± 0.0091 | n.b. | – | – | – | – | 0.0457 ± 0.0017 | – | – | – | – | – | – | –
CCOC(=O)CN1C(=O)S/C(=C\c2ccc(-c3ccc(C#N)cc3)cn2)C1=O [Compound 8, (Z)-ethyl 2-(5-((5-(4-cyanophenyl)pyridin-2-yl)methylene)-2,4-dioxothiazolidin-3-yl) acetate] | 25.9 ± 0.8 | 23.2 ± 1 | 0.144 ± 0.0015 | n.b. | n.b. | – | micromolar range | micromolar range | – | – | – | – | – | – | – | –
COC(=O)CN1C(=O)S/C(=C\c2ccc(-c3ccc(C#N)cc3)cn2)C1=O [Compound 9, (Z)-methyl 2-(5-((5-(4-cyanophenyl)pyridin-2-yl)methylene)-2,4-dioxothiazolidin-3-yl) acetate] | 31.3 ± 1 | 28.4 ± 0.9 | 0.0247 ± 0.0018 | n.b. | – | – | micromolar range | micromolar range | 0.0224 ± 0.0007 | – | – | – | – | – | – | –

Source: article PMC8839660, “Structural Refinement of 2,4-Thiazolidinedione Derivatives as New Anticancer Agents Able to Modulate the BAG3 Protein” (Molecules, 2022)
